Laboratory results published in patent publication US20070099983A1, “Aminocyclohexyl ether compounds and uses thereof” (Cardiome Pharma Corp., priority 2003, published 2007).

Experiments:
conscious rats = assay: Determination of CNS toxicity: convulsions in conscious rats on increasing i.v. infusion; assay type: in vivo; conditions: rat, in vivo; for convulsion dose: iv
[1] = system: sustained AF maintained during continuous vagal nerve stimulation; assay: Canine vagal-AF model: termination of sustained AF; assay type: in vivo, dog; conditions: IV, anesthetized dogs
Method: St.-Georges et al., 1997). Dogs are ventilated mechanically with room air supplemented with oxygen via an endotracheal tube at 20 to 25 breaths/minute with a tidal volume obtained from a monogram. […] Catheters are inserted into the femoral artery for blood pressure recording and blood gas measurement, and into both femoral veins for drug administration and venous sampling. […] Body temperature is maintained at 37-40° C. with a heating blanket. The heart is exposed via a medial thoracotomy and a pericardial cradle is created. […] Drug effects to terminate sustained AF maintained during continuous vagal nerve stimulation are assessed. […] The vagal stimulation voltage is adjusted under control conditions, and then readjusted after each treatment to maintain the same bradycardic effect. […] Diastolic threshold and ERP are determined in duplicate and averaged to give a single value. […] The interval between the stimulus artefact and the peak of the local electrogram is measured as an index of conduction velocity. […] The stimulus voltage-heart rate relationship for vagal nerve stimulation is determined under control conditions in most experiments. […] After the termination of AF, the diastolic threshold and ERP of the atrium and ventricle are determined. […] Group data are expressed as the mean±SEM. […]

Compound | cum conv dose (conscious rats) [µmol/kg] | convulsion dose (conscious rats) [µmol/kg/min] | Median dose required for termination of AF [1] [µmol/kg] | Mean dose required for termination of AF ([1]; mean±EM) [µmol/kg]
Cl.OC1CCN(C2CCCC[C@@H]2OCCc2c(Cl)cccc2Cl)C1 (stereo partly drawn) [Compound 23, (3R)/(3S)-1-{(1R,2R)/(1S,2S)-2-[2-(2,6-dichlorophenyl)-ethoxy]cyclohexyl}-pyrrolidin-3-ol hydrochloride] | 65 | 8 | – | –
Cl.OC1CCN(C2CCCC[C@@H]2OCCc2ccccc2Br)C1 (stereo partly drawn) [Compound 24, (3R)/(3S)-1-{(1R,2R)/(1S,2S)-2-[2-(2-bromophenyl)-ethoxy]cyclohexyl}-pyrrolidin-3-ol hydrochloride] | 67 | 13 | – | –
Cl.OC1CCN([C@@H]2CCCC[C@@H]2OCCc2cccc3ccccc23)C1 (stereo partly drawn) [Compound 25, (3R)/(3S)-1-{(1R,2S)/(1S,2R)-2-[2-(1-naphthyl)ethoxy]-cyclohexyl}-pyrrolidin-3-ol hydrochloride] | 70 | 16 | – | –
Cl.OC1CCN(C2CCCC[C@@H]2OCCc2cccc3ccccc23)C1 (stereo partly drawn) [Compound 26, (3R)/(3S)-1-{(1R,2R)/(1S,2S)-2-[2-(1-naphthyl)ethoxy]-cyclohexyl}-pyrrolidin-3-ol hydrochloride] | 67.33 | 8 | – | –
Cl.O[C@@H]1CCN(C2CCCC[C@@H]2OCCc2ccccc2C(F)(F)F)C1 (stereo partly drawn) [Compound 27, (3R)-1-{(1R,2R)/(1S,2S)-2-[2-(2-Trifluoromethyl-phenyl)ethoxy]-cyclohexyl}-pyrrolidin-3-ol hydrochloride] | 101.93 | 16 | – | –
Cl.OC1CCN(C2CCCC[C@@H]2OCCn2ccc3ccccc32)C1 (stereo partly drawn) [Compound 28, (3R)/(3S)-1-{(1R,2R)/(1S,2S)-2-[2-(1H-indol-1-yl)ethoxy]cyclohexyl}pyrrolidin-3-ol hydrochloride] | 113 | 16 | – | –
Cl.O[C@@H]1CCN(C2CCCC[C@@H]2OCCc2cc3ccccc3o2)C1 (stereo partly drawn) [Compound 29, (3R)-1-{(1R,2R)/(1S,2S)-2-[2-(1-benzofuran-2-yl)ethoxy]-cyclohexyl}-pyrrolidin-3-ol hydrochloride] | 65.67 | 10.67 | – | –
c1ccc2cc(CCO[C@H]3CCCCC3N3CCOCC3)ccc2c1 (stereo partly drawn) [Compound 30, (1R,2R)/(1S,2S)-[2-(4-morpholinyl)-1-(2-naphthenethoxy)]-cyclohexane] | 85 | 13.3 | – | –
c1ccc2c(CCO[C@H]3CCCCC3N3CCOCC3)cccc2c1 (stereo partly drawn) [Compound 31, (1R,2R)/(1S,2S)-[2-(4-morpholinyl)-1-(1-naphthenethoxy)]-cyclohexane] | 93 | 16 | – | –
Brc1ccc(CCO[C@H]2CCCCC2N2CCOCC2)cc1 (stereo partly drawn) [Compound 32] | 91 | 12 | – | –
c1ccc2cc(OCCO[C@H]3CCCCC3N3CCOCC3)ccc2c1 (stereo partly drawn) [Compound 33, (1R,2R)/(1S,2S)-[2-(4-morpholinyl)-1-[2-(2-naphthoxy)ethoxy]]-cyclohexane] | 61.63 | 8 | – | –
Brc1ccc(OCCO[C@H]2CCCCC2N2CCOCC2)cc1 (stereo partly drawn) [Compound 34, (1R,2R)/(1S,2S)-[2-(4-morpholinyl)-1-[2-(4-bromophenoxy)-ethoxy]]cyclohexane] | 83 | 10.7 | – | –
COc1ccc(CCO[C@H]2CCCCC2N2CCOCC2)cc1OC (stereo partly drawn) [Compound 35, (1R,2R)/(1S,2S)-[2-(4-morpholinyl)-1-(3,4-dimethoxy-phenethoxy)]-cyclohexane] | 113 | 16 | – | –
c1ccc2c(CCO[C@H]3CCCCC3N3CCOCC3)csc2c1 (stereo partly drawn) [Compound 36] | 65 | 8 | – | –
c1cc(CCO[C@H]2CCCCC2N2CCOCC2)c2ccsc2c1 (stereo partly drawn) [Compound 37] | 54 | 8 | – | –
Brc1cccc(CCO[C@H]2CCCCC2N2CCOCC2)c1 (stereo partly drawn) [Compound 38, (1R,2R)/(1S,2S)-[2-(4-morpholinyl)-1-(3-bromophenethoxy)]-cyclohexane] | 131 | 16 | – | –
Brc1ccccc1CCO[C@H]1CCCCC1N1CCOCC1 (stereo partly drawn) [Compound 39, (1R,2R)/(1S,2S)-[2-(4-morpholinyl)-1-(2-bromophenethoxy)]-cyclohexane] | 125 | 16 | – | –
Clc1ccc(CCO[C@H]2CCCCC2N2CCOCC2)cc1Cl (stereo partly drawn) [Compound 40, (1R,2R)/(1S,2S)-2-(4-morpholinyl)-1-(3,4-dichlorophenethoxy) cyclohexane] | 118 | 16 | – | –
Cl.O=C1CCN(C2CCCC[C@@H]2OCCc2c(Cl)cccc2Cl)C1 (stereo partly drawn) [Compound 41, (1R,2R)/(1S,2S)-2-(3-ketopyrrolidinyl)-1-(2,6-dichlorophenethoxy) cyclohexane monohydrochloride] | 190 | 32 | – | –
CC(=O)OC1CCN([C@@H]2CCCCC2OCCc2cccc3ccccc23)C1.Cl (stereo partly drawn) [Compound 43, (1R,2R)/(1S,2S)-2-(3-acetoxypyrrolidinyl)-1-(1-naphthenethoxy)cyclo hexane monohydrochloride] | 65 | 8 | – | –
Cl.Clc1cccc(Cl)c1COC1CCCC[C@H]1N1CCOCC1 (stereo partly drawn) [Compound 44, (1R,2R)/(1S,2S)-2-(4-morpholinyl)-1-[(2,6-dichlorophenyl)methoxy]cyclohexane monohydrochloride] | 97 | 16 | – | –
Cl.O=C1CCN([C@@H]2CCCCC2OCc2c(Cl)cccc2Cl)C1 (stereo partly drawn) [Compound 45, (1R,2R)/(1S,2S)-2-(3-ketopyrrolidinyl)-1-[(2,6-dichlorophenyl)methoxy]cyclohexane monohydrochloride] | 214 | 32 | – | –
Cl.OC1CCN(C2CCCC[C@@H]2OCCc2c(Cl)cccc2Cl)C1 (stereo partly drawn) [Compound 46, (1R,2R)/(1S,2S)-2-(3-hydroxypyrrolidinyl)-1-(2,6-dichlorophenethoxy) cyclohexane monohydrochloride] | 65 | – | – | –
Cl.O=C1CCN(C2CCCC[C@@H]2OCC(c2ccccc2)c2ccccc2)C1 (stereo partly drawn) [Compound 47, (1R,2R)/(1S,2S)-2-(3-ketopyrrolidinyl)-1-(2,2-diphenylethoxy)cyclo hexane monohydrochloride] | 155 | 21 | – | –
Cl.Clc1cccc(Cl)c1CCOC1CCCC[C@H]1N1CCSC1 (stereo partly drawn) [Compound 48, (1R,2R)/(1S,2S)-2-(3-thiazolidinyl)-1-(2,6-dichlorophenethoxy) cyclohexane monohydrochloride] | 331 | 43 | – | –
O=C(NCC1CCCCN1)c1cc(OCC(F)(F)F)ccc1OCC(F)(F)F (stereo not drawn) [Flecainide] | – | – | 2.5 | 4 ± 2
